Results published in patent publication US4250259A, “Microbiological production of ketones from C3 -C6 secondary alcohols” (priority 1979, dated 1981).

Legend:
Type in all cases: cell-based
[1] = system: Methanomonas methylovora ATCC 21852 (Obligate); test: sec-alcohols to ketones by resting cell suspensions
Method: (§1) The pH of the nutrient medium was adjusted to 7.0 by the addition of acid or base and 50 ml. samples of the nutrient medium were charged into a plurality of 300 ml. shaker flasks. The shaker flasks were inoculated with an inoculating loop of cells from an agar plate containing homogeneous colonies of the microorganisms on the plate (the purity of the isolates was confirmed by microscopic examination). The isolates had been maintained on methanol (0.4% V/V) agar plates or on agar plates under an atmosphere of methane and air having a 1:1 V/V gas ratio which had been transferred every two weeks. For growth on methanol, the medium was supplemented with 0.4% methanol. For growth on methane, the gaseous phase of the inoculated flasks was replaced with a gas mixture comprised of methane and air having a ratio of 1:1 on a V/V basis. The inoculated flasks were sealed air-tight and were incubated on a rotary shaker of orbital radius 2.5 cm. at 250 rpm and at 30° C. for two days until turbidity in the medium had developed. The cells were harvested by centrifugation at 10,000×g. at 4° C. for 30 minutes. The cell pellet was washed twice with a 0.05 M phosphate buffer at a pH of 7.0 (containing 0.02 M MgCl2). The washed cells were then suspended in a 0.05 M phosphate buffer at pH 7.0.
(§2) A 0.5 ml. sample of each washed cell suspension (2 mg. cells) was put into 10 ml. vials at 4° C. which were sealed with a rubber cap. The gaseous phase of the vials was removed with vacuum and then was replaced with a gas mixture of the substrate reactant (i.e., alkane or secondary alcohol) and oxygen at a 1:1 V/V ratio. (In the case of a liquid substrate, i.e., secondary alcohol, 10 μl of the substrate was put in the 10 ml. vials). […] Samples of product (1-3 μl) were withdrawn periodically with a microsyringe and the products were analyzed by gas chromatography (ionization flame detector column).
(§3) The procedure in Example 1 was repeated except that a plurality of methanol-utilizing methylotrophic microorganisms were each aerobically grown in a methanol-containing nutrient medium instead of a methane-containing medium. The nutrients in the medium were the same as indicated in Example 1 except that 0.4% V/V methanol was used as the alcohol dehydrogenase inducer and as the major carbon and energy source for growth. The cells were harvested and washed as described in Example 1. The resting microbial cells of the induced methanol-grown methanol-utilizing methylotrophic microorganisms were then contacted with C3 -C6 secondary alcohols in a buffered solution by the procedure of Example 1.
(§4) The procedure in Example 1 was repeated except that the methylotrophic microorganisms were each aerobically grown in an alcohol dehydrogenase-inducing growth medium containing methylamine or methyl formate as the alcohol dehydrogenase enzyme inducer and growth substrate instead of methane. The nutrients in the medium were the same as indicated in Example 1 except that 0.4% V/V of the alcohol dehydrogenase-inducer growth substrate was used as the major carbon and energy source. The cells were harvested and washed as described in Example 1. The resting microbial cells were then contacted with C3 -C6 secondary alcohols in a buffered solution by the conversion procedure of Example 1.

[2] = system: Pseudomonas sp. ATCC 21438 (Facultative); test: as above
Method: as §1, §2, §3, §4

[3] = system: Methylosinus trichosporium OB3b (NRRL B-11,196); test: as above
Method: as §1, §2
(§5) The procedure in Example 1 was repeated wherein a plurality of the methane-utilizing methylotrophic microorganisms were each grown aerobically in a nutrient medium containing methane as the alcohol dehydrogenase enzyme inducer and as the major carbon and energy source for growth. The cells were harvested and washed as described in Example 1. The resting microbial cells of the induced methane-grown methane-utilizing methylotrophic microorganisms were then contacted with C3 -C6 secondary alcohols in a buffered solution by the procedure of Example 1.
(§6) In this example, the procedure in Example 1 was repeated except that a plurality of methane-utilizing methylotrophic microorganisms were each aerobically grown in a methanol-containing nutrient medium instead of a methane-containing medium. The nutrients in the medium were the same as indicated in Example 1 except that 0.4% V/V methanol was used as the alcohol dehydrogenase inducer and major source of carbon and energy for growth. Following growth, the cells were harvested and washed as described in Example 1.
(§7) The resting cells of the induced methanol-grown methylotrophic microorganisms were then contacted with secondary alcohols in a buffered solution by the procedure described in Example 1.
as §4

[4] = system: Methylobacterium organophilum XX (ATCC 27886); test: as above
Method: as §1, §2, §5, §6, §7, §4

[5] = system: Torulopsis sp. Strain A1 (NRRLY-11,419); test: sec-alcohols to ketones by cell suspensions of yeasts
[6] = system: Candida utilis ATCC 26387; test: as above
[7] = system: Methylocystis parvus OBBP (NRRL B-11,198); test: sec-alcohols to ketones by resting cell suspensions
Method: as §1, §2, §5, §6, §7

[8] = system: Methylomonas methanica S1 (NRRL B-11,199); test: as above
Method: as §1, §2, §5, §6, §7

[9] = system: Methylobacter capsulatus Y (NRRL B-11,201); test: as above
Method: as §1, §2, §5, §6, §7

[10] = system: Methylococcus capsulatus, Texas (ATCC 19069); test: as above
Method: as §1, §2, §5, §6, §7

CCCC(C)O (stereo not drawn) [2-Pentanol, 2-pentanol]
Conversion Rates, sec-alcohol to corresponding ketone ([1]; methanol-grown cells): 2.1 μmoles/hr/mg protein | Conversion Rates, sec-alcohol to corresponding ketone ([1]; methyl formate-grown cells): 1.5 μmoles/hr/mg protein | Conversion Rates, sec-alcohol to corresponding ketone ([1]; methylamine-grown cells): 1.0 μmoles/hr/mg protein | Conversion Rates, sec-alcohol to corresponding ketone ([2]; methanol-grown cells): 2.7 μmoles/hr/mg protein | Conversion Rates, sec-alcohol to corresponding ketone ([2]; methyl formate-grown cells): 2.0 μmoles/hr/mg protein | Conversion Rates, sec-alcohol to corresponding ketone ([2]; methylamine-grown cells): 0.82 μmoles/hr/mg protein | Conversion Rates, sec-alcohol to corresponding ketone ([3]; cells grown on methane): 2.7 μmoles/hr/mg protein | Conversion Rates, sec-alcohol to corresponding ketone ([3]; cells grown on methanol): 2.9 μn moles/hr/mg protein | Conversion Rates, sec-alcohol to corresponding ketone ([3]; methyl formate-grown cells): 1.5 μmoles/hr/mg protein | Conversion Rates, sec-alcohol to corresponding ketone ([4]; cells grown on methane): 0.82 μmoles/hr/mg protein | Conversion Rates, sec-alcohol to corresponding ketone ([4]; cells grown on methanol): 0.9 μn moles/hr/mg protein | Conversion Rates, sec-alcohol to corresponding ketone ([4]; methyl formate-grown cells): 1.0 μmoles/hr/mg protein | Conversion Rate, sec-alcohol to corresponding ketone ([5]; Growth Substrate Ethanol): 1.2 μmoles/hr/mg of protein | Conversion Rate, sec-alcohol to corresponding ketone ([5]; Growth Substrate Methanol): 1.0 μmoles/hr/mg of protein | Conversion Rate, sec-alcohol to corresponding ketone ([5]; Growth Substrate Methylamine): 0.9 μmoles/hr/mg of protein | Conversion Rate, sec-alcohol to corresponding ketone ([5]; Growth Substrate Methylformate): 1.1 μmoles/hr/mg of protein | Conversion Rate, sec-alcohol to corresponding ketone ([5]; Growth Substrate Propylamine): 0.62 μmoles/hr/mg of protein | Conversion Rate, sec-alcohol to corresponding ketone ([6]; Growth Substrate Ethanol): 1.0 μmoles/hr/mg of protein | Conversion Rate, sec-alcohol to corresponding ketone ([6]; Growth Substrate Methanol): 1.5 μmoles/hr/mg of protein | Conversion Rate, sec-alcohol to corresponding ketone ([6]; Growth Substrate Methylamine): 1.2 μmoles/hr/mg of protein | Conversion Rate, sec-alcohol to corresponding ketone ([6]; Growth Substrate Methylformate): 1.3 μmoles/hr/mg of protein | Conversion Rate, sec-alcohol to corresponding ketone ([6]; Growth Substrate Propylamine): 0.9 μmoles/hr/mg of protein | Conversion Rates, sec-alcohol to corresponding ketone ([7]; cells grown on methane): 0.80 μmoles/hr/mg protein | Conversion Rates, sec-alcohol to corresponding ketone ([7]; cells grown on methanol): 0.82 μn moles/hr/mg protein | Conversion Rates, sec-alcohol to corresponding ketone ([8]; cells grown on methane): 0.25 μmoles/hr/mg protein | Conversion Rates, sec-alcohol to corresponding ketone ([8]; cells grown on methanol): 0.45 μn moles/hr/mg protein | Conversion Rates, sec-alcohol to corresponding ketone ([9]; cells grown on methane): 0.5 μmoles/hr/mg protein | Conversion Rates, sec-alcohol to corresponding ketone ([9]; cells grown on methanol): 0.60 μn moles/hr/mg protein | Conversion Rates, sec-alcohol to corresponding ketone ([10]; cells grown on methane): 2.5 μmoles/hr/mg protein | Conversion Rates, sec-alcohol to corresponding ketone ([10]; cells grown on methanol): 3.5 μn moles/hr/mg protein

CCC(C)O (stereo not drawn) [2-Butanol, 2-butanol]
Conversion Rates, sec-alcohol to corresponding ketone ([1]; methanol-grown cells): 2.5 μmoles/hr/mg protein | Conversion Rates, sec-alcohol to corresponding ketone ([1]; methyl formate-grown cells): 2.1 μmoles/hr/mg protein | Conversion Rates, sec-alcohol to corresponding ketone ([1]; methylamine-grown cells): 3.2 μmoles/hr/mg protein | Conversion Rates, sec-alcohol to corresponding ketone ([2]; methanol-grown cells): 3.2 μmoles/hr/mg protein | Conversion Rates, sec-alcohol to corresponding ketone ([2]; methyl formate-grown cells): 3.2 μmoles/hr/mg protein | Conversion Rates, sec-alcohol to corresponding ketone ([2]; methylamine-grown cells): 2.1 μmoles/hr/mg protein | Conversion Rates, sec-alcohol to corresponding ketone ([3]; cells grown on methane): 3.7 μmoles/hr/mg protein | Conversion Rates, sec-alcohol to corresponding ketone ([3]; cells grown on methanol): 4.1 μn moles/hr/mg protein | Conversion Rates, sec-alcohol to corresponding ketone ([3]; methyl formate-grown cells): 4.5 μmoles/hr/mg protein | Conversion Rates, sec-alcohol to corresponding ketone ([4]; cells grown on methane): 2.5 μmoles/hr/mg protein | Conversion Rates, sec-alcohol to corresponding ketone ([4]; cells grown on methanol): 2.8 μn moles/hr/mg protein | Conversion Rates, sec-alcohol to corresponding ketone ([4]; methyl formate-grown cells): 3.5 μmoles/hr/mg protein | Conversion Rate, sec-alcohol to corresponding ketone ([5]; Growth Substrate Ethanol): 4.7 μmoles/hr/mg of protein | Conversion Rate, sec-alcohol to corresponding ketone ([5]; Growth Substrate Methanol): 4.9 μmoles/hr/mg of protein | Conversion Rate, sec-alcohol to corresponding ketone ([5]; Growth Substrate Methylamine): 4.5 μmoles/hr/mg of protein | Conversion Rate, sec-alcohol to corresponding ketone ([5]; Growth Substrate Methylformate): 4.9 μmoles/hr/mg of protein | Conversion Rate, sec-alcohol to corresponding ketone ([5]; Growth Substrate Propylamine): 3.8 μmoles/hr/mg of protein | Conversion Rate, sec-alcohol to corresponding ketone ([6]; Growth Substrate Ethanol): 5.2 μmoles/hr/mg of protein | Conversion Rate, sec-alcohol to corresponding ketone ([6]; Growth Substrate Methanol): 6.8 μmoles/hr/mg of protein | Conversion Rate, sec-alcohol to corresponding ketone ([6]; Growth Substrate Methylamine): 5.0 μmoles/hr/mg of protein | Conversion Rate, sec-alcohol to corresponding ketone ([6]; Growth Substrate Methylformate): 6.2 μmoles/hr/mg of protein | Conversion Rate, sec-alcohol to corresponding ketone ([6]; Growth Substrate Propylamine): 4.2 μmoles/hr/mg of protein | Conversion Rates, sec-alcohol to corresponding ketone ([7]; cells grown on methane): 1.1 μmoles/hr/mg protein | Conversion Rates, sec-alcohol to corresponding ketone ([7]; cells grown on methanol): 1.0 μn moles/hr/mg protein | Conversion Rates, sec-alcohol to corresponding ketone ([8]; cells grown on methane): 0.39 μmoles/hr/mg protein | Conversion Rates, sec-alcohol to corresponding ketone ([8]; cells grown on methanol): 0.40 μn moles/hr/mg protein | Conversion Rates, sec-alcohol to corresponding ketone ([9]; cells grown on methane): 0.84 μmoles/hr/mg protein | Conversion Rates, sec-alcohol to corresponding ketone ([9]; cells grown on methanol): 1.5 μn moles/hr/mg protein | Conversion Rates, sec-alcohol to corresponding ketone ([10]; cells grown on methane): 0.60 μmoles/hr/mg protein | Conversion Rates, sec-alcohol to corresponding ketone ([10]; cells grown on methanol): 0.70 μn moles/hr/mg protein
